Source: patent US6593329B1, “Method for the treatment or prevention of coronary graft vasospasm” (Orion Corporation, priority 1999, dated 2003)
“And” between values parts separate entries of the source, which are not always exact repeats. Identical values can stand only once.

Tested on: human internal mammary artery (IMA) preparations
Assay: Prevention of noradrenaline-induced vasospasm in isolated human internal mammary artery rings (isolated ring technique)
Type: cell-based
Settings: for Prevention (%) of graft vasospasm (as % of maximal attainable spasm): IMA rings contracted with noradrenaline 1-10 μM, per patient and mean
Experimental: The effect of levosimendan to prevent vasospasm was investigated in human internal mammary artery (IMA) preparations from coronary by-pass surgery (8 patients) at three different levels of vascular tone using isolated ring technique. It is known that IMA may produce spasm during and after graft surgery especially at low perfusion pressure (at or lower than 50 mmHg).
Isometric stretch was applied perpendicular to the direction of blood flow for 45 min in organ bath containing oxygenated Krebs-Henseleit solution (37° C., pH 7.4). Magnitude of stretch (in mN) was converted into quasi-equivalent pressure values (23, 46 and 92 mmHg) according to the Laplace law. Isolated IMA rings were contracted with noradrenaline (1-10 μM), and at the steady state contraction, levosimendan (0.3 and 0.6 μM) was added cumulatively.

SMILES: CC1CC(=O)NN=C1c1ccc(NN=C(C#N)C#N)cc1 (single isomer, unassigned; (-)) [Levosimendan, (−)-[[4-(1,4,5,6-tetrahydro-4-methyl-6-oxo-3-pyridazinyl)phenyl]hydrazono]propanedinitrile]
- Prevention (%) of graft vasospasm (as % of maximal attainable spasm) (23 mmHg transmural pressure, levosimendan 0.3 μM): 46.1% and 27.2% and 37.5% and 60.0% and 46.7% and 40.0%
- Prevention (%) of graft vasospasm (as % of maximal attainable spasm) (23 mmHg transmural pressure, levosimendan 0.6 μM): 76.9% and 125.0% and 45.5% and 62.5% and 0% and 110.0% and 113.3% and 113.0%
- Prevention (%) of graft vasospasm (as % of maximal attainable spasm) (46 mmHg transmural pressure, levosimendan 0.3 μM): 28.6% and 75.0% and 13.8% and 8.3% and 57.1% and 16.2% and 37.8% and 17.3%
- Prevention (%) of graft vasospasm (as % of maximal attainable spasm) (46 mmHg transmural pressure, levosimendan 0.6 μM): 85.7% and 100.0% and 41.4% and 27.1% and 114.3% and 21.6% and 78.4% and 57.7%
- Prevention (%) of graft vasospasm (as % of maximal attainable spasm) (92 mmHg transmural pressure, levosimendan 0.3 μM): 16.6% and 0% and 3.9% and 8.2% and 9.6%
- Prevention (%) of graft vasospasm (as % of maximal attainable spasm) (92 mmHg transmural pressure, levosimendan 0.6 μM): 61.6% and 22.0% and 14.9% and 34.7% and 26.7%
- Prevention of graft vasospasm (result in words) (clinically relevant submicromolar concentrations, in particular at low perfusion pressure values): prevents graft vasospasm
